Assay results published in PMC7191558, “Use of BODIPY-Labeled ATP Analogues in the Development and Validation of a Fluorescence Polarization-Based Assay for Screening of Kinase Inhibitors” (ACS Omega, 2020).

Target: T1, Protein Kinase A catalytic subunit (PKA) (Bos taurus, UniProt P00517)
T1 construct: gene PRKACA; catalytic subunit (from bovine heart, Merck)
Assay: fluorescence polarization competition with BODIPY FL ATP-γ-S
Type: binding

## CC1CNCCN1S(=O)(=O)c1cccc2cnccc12 (stereo not shown) [H7]
  IC50: ~1130 µM
